Reference: PubChem BioAssay AID248 (DTP/NCI, 2004)
Values joined by “and” are separate entries in the source; they are usually repeats but may differ in a detail not shown here. Equal entries are not always repeated. Inconclusive results and toxic doses are left out. Cut-off read from the data, not from the text of the source: active = T/C of 150% or more; inactive = T/C below 125%.

Test system: L1210 leukemia ip in BDF1 mice, survival T/C
Test: NCI In Vivo Anticancer Drug Screen. Data for tumor model L1210 Leukemia (intraperitoneal) in B6D2F1 (BDF1) mice
Conditions: endpoint: mean survival time, higher = longer survival
Procedure, shortened: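 Value reflects the ratio of survival in compound-treated mice to survival in vehicle-treated controls, with both groups carrying the same transplanted tumor.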

[1] = dose: 50.0 mg/kg/injection, schedule: Q01DX009 (ip), vehicle: saline with Tween-80
[2] = dose: 100.0 mg/kg/injection, schedule: Q01DX009 (ip), vehicle: saline with Tween-80
[3] = dose: 100.0 mg/kg/injection, schedule: Q04DX003 (ip), vehicle: Klucel (hydroxypropylcellulose) (HPC)
[4] = dose: 200.0 mg/kg/injection, schedule: Q04DX003 (ip), vehicle: Klucel (hydroxypropylcellulose) (HPC)
[5] = dose: 400.0 mg/kg/injection, schedule: Q04DX003 (ip), vehicle: Klucel (hydroxypropylcellulose) (HPC)
[6] = dose: 25.0 mg/kg/injection, schedule: Q01DX009 (ip), vehicle: saline with Tween-80
[7] = dose: 100.0 mg/kg/injection, schedule: Q04DX003 (ip), vehicle: saline with Tween-80
[8] = dose: 50.0 mg/kg/injection, schedule: Q01DX009 (ip), vehicle: Klucel (hydroxypropylcellulose) (HPC)
[9] = dose: 200.0 mg/kg/injection, schedule: Q01DX009 (ip), vehicle: Klucel (hydroxypropylcellulose) (HPC)
[10] = dose: 200.0 mg/kg/injection, schedule: Q04DX003 (ip), vehicle: saline with Tween-80

Measured: T/C

CC(C)(CO)CN1CCCCC1
inactive: [1] 93 % of control | [2] 93 % of control

O=C(NCc1ccccc1)Nc1ccccc1
inactive: [3] 96 % of control | [4] 100 % of control | [5] 96 % of control

CCCCc1c(-c2ccccc2)nc(N)[nH]c1=O
inactive: dose: 100.0 mg/kg/injection, schedule: Q01DX001 (ip), vehicle: Klucel (hydroxypropylcellulose) (HPC) 103 % of control | dose: 200.0 mg/kg/injection, schedule: Q01DX001 (ip), vehicle: Klucel (hydroxypropylcellulose) (HPC) 102 % of control | dose: 400.0 mg/kg/injection, schedule: Q01DX001 (ip), vehicle: Klucel (hydroxypropylcellulose) (HPC) 104 % of control

Cc1ccc(Nc2cc(N)nc(N)n2)cc1Cl
inactive: dose: 100.0 mg/kg/injection, schedule: Q01DX Z (ip), vehicle: methylcellulose (MC) 101 % of control | dose: 200.0 mg/kg/injection, schedule: Q01DX Z (ip), vehicle: methylcellulose (MC) 89 % of control

CNC(=O)n1ncnc1N
inactive: dose: 100.0 mg/kg/injection, schedule: Q04DX003 (ip), vehicle: saline 94 % of control | dose: 200.0 mg/kg/injection, schedule: Q04DX003 (ip), vehicle: saline 96 % of control | dose: 400.0 mg/kg/injection, schedule: Q04DX003 (ip), vehicle: saline 97 % of control

Clc1ccccc1-c1ncc2cnccn12
inactive: [6] 98 % of control | dose: 25.0 mg/kg/injection, schedule: Q04DX003 (ip), vehicle: saline with Tween-80 90 % of control | [1] 101 % of control | dose: 50.0 mg/kg/injection, schedule: Q04DX003 (ip), vehicle: saline with Tween-80 102 % of control | [2] 107 % of control | [7] 96 % of control and 92 % of control

O=C1NC(c2ccccc2)(c2ccccc2)CN1CCO
inactive: dose: 100.0 mg/kg/injection, schedule: Q01DX001 (ip), vehicle: saline with Tween-80 95 % of control | dose: 200.0 mg/kg/injection, schedule: Q01DX001 (ip), vehicle: saline with Tween-80 95 % of control | dose: 400.0 mg/kg/injection, schedule: Q01DX001 (ip), vehicle: saline with Tween-80 93 % of control

O=C1NC(=O)C(c2ccccc2)(C2CCCC2)N1 (stereo not given)
inactive: [8] 93 % of control | dose: 100.0 mg/kg/injection, schedule: Q01DX009 (ip), vehicle: Klucel (hydroxypropylcellulose) (HPC) 98 % of control | [9] 96 % of control

N#Cc1oc2ccccc2c1OC(=O)C(F)(F)F
inactive: [7] 100 % of control | [10] 95 % of control

Cc1cc(N(C)C)cc(C)c1N=Nc1cc(Cl)ccc1Cl
inactive: [3] 94 % of control | [4] 96 % of control | [5] 87 % of control

Cc1n(CCBr)c([N+](=O)[O-])c[n+]1C1N=C(c2ccccc2Cl)c2cc(Cl)ccc2NC1=O (stereo not given)
inactive: [8] 86 % of control | [9] 89 % of control

C#CC(C)(C)N1CCCCC1
inactive: dose: 25.0 mg/kg/injection, schedule: Q04DX003 (ip), vehicle: Klucel (hydroxypropylcellulose) (HPC) 110 % of control | dose: 50.0 mg/kg/injection, schedule: Q04DX003 (ip), vehicle: Klucel (hydroxypropylcellulose) (HPC) 106 % of control

CC1(c2ccc(Cl)s2)C(=O)N(Cl)C(=O)N1Cl (stereo not given)
inactive: dose: 12.5 mg/kg/injection, schedule: Q01DX009 (ip), vehicle: saline with Tween-80 95 % of control | [6] 100 % of control | [1] 94 % of control and 89 % of control | [2] 93 % of control | [7] 96 % of control | [10] 98 % of control
